Entries after “also recorded” stand apart in the source; their conditions may differ.
How the values were obtained:
[1] = system: genes known to be involved in the regulation of IOP; assay: Rat intestine and mouse calvarial cell microarrays (gene expression)
Description: Vitamin D-deficient rats were given one bolus intravenous dose of 730 ng of 1,25-(OH)2D3/kg of body weight in ethanol or ethanol vehicle (control). Rats were anesthetized with isofluorane and decapitated 1, 3, 6, 10 and 24 h after injection of the dose or vehicle. There were three rats in each group for each time point. Blood was collected at the same time for determination of changes in serum calcium concentration. For each rat, the first 15 cm of intestine (duodenum) was removed, slit longitudinally and scraped with a glass slide. The mucosa was placed in a vial with GTC extraction buffer supplemented with 2% of β-mercaptoethanol (PolyATtract System 1000, Promega Corp., Madison, Wis.), homogenized at high speed with PowerGen 700 (Fisher Scientific, Pittsburgh, Pa.), flash frozen in liquid N2 and stored at −80° C. Experiments were done in duplicate.
For each time point, Poly(A+) RNA was isolated from pooled homogenized mucosa of three 1,25-(OH)2D3 or three vehicle treated rats. The mRNA was isolated using the PolyATtract System 1000 (Promega Corp., Madison, Wis.). The mRNA was purified using an RNeasy kit (Qiagen, Chatsworth, Calif.). The quality, integrity and quantity of the Poly(A+) RNA were determined by agarose gel electrophoresis, UV absorption spectrophotometry and the use of Agilent Bioanalyser 2100 (Agilent Technologies, Palo Alto, Calif.).
Primary fetal mouse calvarial cells were isolated and cultured in αMEM containing 10% FBS as described [Shevde, 2002]. Cells were plated in the 2×6-well plates (5×10^5 cells/well) and cultured with medium changes performed on days 1 and 4. On day 4 cells on 1 plate were treated with 1,25(OH)2D3 (10 nM final concentration). Second plate was used as the control. After 24 h of incubation with 1,25(OH)2D3, cells were harvested and total RNA was isolated with Trizol reagent (Invitrogen Life Technologies, Carlsbad, Calif.). The mRNA was further purified using an RNeasy kit (Qiagen, Chatsworth, Calif.). The quality, integrity and quantity of the total RNA were assessed by agarose gel electrophoresis and UV absorption spectrophotometry. Experiments were done in triplicates. […]
The hybridization reaction and the automated hybridization procedure were performed by the Gene Expression Center at the Biotechnology Center at the University of Wisconsin-Madison as described (Kutuzova, 2004). Each probe was tested on an Affymetrix Test3 Array and the quality of the cDNA and cRNA was determined by a 3′/5′ ratio of housekeeping genes within the array (ubiquitin, rat glyceraldehyde 3-phosphate dehydrogenase, β-actin, and hexokinase). […] Expression data were analyzed using the Affymetrix Microarrray Suite software version 5.0 (MAS 5.0). […]

monkey eyes = assay: Outflow facility by two-level constant pressure perfusion of the anterior chamber; assay type: in vivo, cynomolgus monkeys; conditions: for increase in outflow facilities, vitamin D treated eyes: combined n=8
Description: Ocular normotensive adult cynomolgus monkeys, of either sex, weighing 3-7 kg were anesthetized with i.m. ketamine HCl (3-25 mg/kg, supplemented with 1-10 mg/kg) for IOP, topical drop administration and aqueous humor flow measurements. All monkeys were free of any ocular abnormalities according to slit lamp biomicroscopy at the time measurements were taken. For outflow facility measurements, animals were given intravenous sodium pentobarbital (15 mg/kg, supplemented with 5-10 mg/kg) following i.m. ketamine induction.
Outflow facility was determined in pentobarbital-anesthetized monkeys [Gabelt, 2004] by two-level constant pressure perfusion of the anterior chamber with Bárány's perfusand [Bárány, 1964] (n=8). Four monkeys (group A) received the single bolus injection of 1 μl of 1 μg vitamin D 1,25-dihydroxyvitamin D3 (1,25-(OH)2D3) into the anterior chamber of one eye (Treated eye) or 1 μl of propylene glycol into the anterior chamber of fellow eye (Control eye). Four monkeys (group B) were treated topically with 5 μg of vitamin D in 5 μl of propylene glycol or vehicle (5 μl of propylene glycol) twice daily for two days.
Following baseline outflow facility measurements on the third day, the fifth treatment was administered as a single bolus injection of 1 μl of 1 μg vitamin D 1,25-dihydroxyvitamin D3 (1,25-(OH)2D3) into the anterior chamber of one eye (Treated eye) or 1 μl of propylene glycol into the anterior chamber of fellow eye (Control eye). Following injections, the treatment bolus was allowed to wash in for 5 min with flow from the reservoirs. Then the contents of the anterior chamber were mixed by blowing cold air on the cornea to create convection. Reservoirs were closed for 75 minutes, then reopened and outflow facility measured for 60-90 minutes. Data were averaged for the entire 60-90 minute period and for 30-minute intervals and then were compared to baseline and to the vehicle treated eyes. Ratios were compared by the two-tailed paired t-test for ratios different from 1.0.
Baseline outflow facilities were studied in two groups (A and B) of monkeys (Materials and Methods). Group A (n=4) was treated with single bolus intracameral injection of 1 μg vitamin D (1,25-(OH)2D3) in 1 μl propylene glycol in one eye and 1 μl vehicle, propylene glycol in the control eye (Table 2, A). Group B (n=4) was treated topically with 5 μg of vitamin D in 5 μl of propylene glycol or vehicle (5 μl of propylene glycol) twice daily for two days. Then, following baseline outflow facility measurements on the third day, the fifth treatment was administered as a single bolus injection of 1 μl of 1 μg vitamin D 1,25-dihydroxyvitamin D3 (1,25-(OH)2D3) into the anterior chamber of one eye (Treated eye) or 1 μl of propylene glycol into the anterior chamber of fellow eye (Control eye).

[2] = rat 730 ng/kg i.v., mouse calvarial cells 10 nM, 24 h
[3] = Combined data for Groups A and B, n=8
[4] = Group A, 1 μg intracameral, n=4
[5] = Group B, 5 μg topical (4 treatments) then 1 μg intracameral, n=4

SMILES: C=C1/C(=C\C=C2/CCC[C@]3(C)[C@@H]([C@H](C)CCCC(C)(C)O)CC[C@@H]23)C[C@@H](O)C[C@@H]1O [1,25-(OH)2D3, 1α,25-dihydroxyvitamin D3]
- expression of vasoactive intestinal peptide, topoisomerase I, MMP2 ([1]; data not shown): decreased expression
- expression of ACTG2, ATP1A1, AQP1, CEACAM, FN1, CD44 and TIMP3 [1, 2]: Significantly down-regulated
- expression of PTGER4, MMP3, MMP11 and MMP13 [1, 2]: Significant increases
- mRNA expression for carbonic anhydrase I (CAI), angiotensin I converting enzyme (ACE) and actin alpha (ACTA1) [1, 2]: strong reductions
- Cumulative 90 min outflow facility, Treated eye after Vitamin D (monkey eyes; [3]): 0.44 ± 0.13 μl/min/mmHg
- Outflow facility Vitamin D/Baseline, Treated/Control (monkey eyes; [3]): 0.94 ± 0.11
- Outflow facility ratio Treated/Control after Vitamin D (monkey eyes; [3]): 0.87 ± 0.16
- Outflow facility Vitamin D/Baseline, Treated eye (monkey eyes; Combined data for Groups A and B, n=8, *p<0.05 vs 1.0): 1.59 ± 0.19*
- Cumulative 90 min outflow facility, Treated eye after Vitamin D (monkey eyes; [4]): 0.37 ± 0.07 μl/min/mmHg
- Outflow facility Vitamin D/Baseline, Treated eye (monkey eyes; [4]): 1.80 ± 0.30
- Outflow facility Vitamin D/Baseline, Treated/Control (monkey eyes; [4]): 1.04 ± 0.13
- Outflow facility ratio Treated/Control after Vitamin D (monkey eyes; [4]): 0.82 ± 0.20
- Cumulative 90 min outflow facility, Treated eye after Vitamin D (monkey eyes; [5]): 0.51 ± 0.26 μl/min/mmHg
- Outflow facility Vitamin D/Baseline, Treated eye (monkey eyes; [5]): 1.39 ± 0.45
- Outflow facility Vitamin D/Baseline, Treated/Control (monkey eyes; [5]): 0.84 ± 0.18
- Outflow facility ratio Treated/Control after Vitamin D (monkey eyes; [5]): 0.91 ± 0.27
- increase in outflow facilities, vitamin D treated eyes (monkey eyes; at 60 min, significant): 60%
- increase in outflow facilities, vitamin D treated eyes (monkey eyes; at 90 min, significant): 115%
- increase in outflow facilities over baseline, both eyes (monkey eyes; at 90 min after the intracameral injections): about 100%
- outflow facility, vitamin D versus vehicle treated eyes (monkey eyes; cumulative 90 min, groups A and B and combined): no significant differences were found neither between the vitamin D or vehicle treated eyes; also recorded: did not change either the aqueous humor flow or the outflow facilities
- increase in outflow facilities, vitamin D treated eyes (monkey eyes; first 30 min after the bolus injection, non-significant): 10%

Source: US9452177B2, “Vitamin D compounds and methods for reducing ocular hypertension (OHT)” (Wisconsin Alumni Research Foundation, priority 2008, dated 2016)
